Data from PubChem BioAssay AID1259408 (Genetic Toxicology Data Bank (GENE-TOX), 2018).
Calls of active or inactive are those of the source. How the calls were made is not given here.

System: GENE-TOX genotoxicity assays, various organisms and cells
Experiment: GENE-TOX mutagenicity studies
From the text: GENE-TOX provides genetic toxicology (mutagenicity) test data from expert peer review of open scientific literature for more than 3,000 chemicals from the United States Environmental Protection Agency (EPA). GENE-TOX was established to select assay systems for evaluation, review data in the scientific literature, and recommend proper testing protocols and evaluation procedures for these systems.
GENE-TOX covers the years 1991 - 1998. It is no longer updated.
This is an archive assay for GENE-TOX mutagenicity studies.

## CCN(CC)CCNc1ccc(CO)c2sc3ccccc3c(=O)c12
Species/Cell Type: Drosophila melanogaster, Assay Type: Sex-linked recessive lethal gene mutation, Assay Code: SRL+, Evaluation Type: Evaluation A (Pre-1980)
  mutagenic call: active; positive
Species/Cell Type: Drosophila melanogaster, Assay Type: Sex-linked recessive lethal gene mutation, Assay Code: SRLT, Evaluation Type: Evaluation A (Pre-1980)
  mutagenic call: no conclusion
Species/Cell Type: Drosophila melanogaster, Sex: Male, Assay Type: Heritable translocation test, chromosome aberrations, Assay Code: DHT-, Evaluation Type: Evaluation A (Pre-1980)
  mutagenic call: inactive; negative
Species/Cell Type: Fischer rat embryo (RLV/1706) cells, Assay Type: Cell transformation, viral enhanced, Assay Code: CTR+, Evaluation Type: Evaluation A (Pre-1980)
  mutagenic call: active; positive
Species/Cell Type: Glycine max (soybean), Assay Type: Gene mutation, Assay Code: GLM-, Evaluation Type: Evaluation A (Pre-1980)
  mutagenic call: inactive; negative
Species/Cell Type: Mammalian polychromatic erythrocytes, Assay Type: Micronucleus test, chromosome aberrations, Assay Code: MNT+, Evaluation Type: Evaluation A (Pre-1980)
  mutagenic call: active; positive
Species/Cell Type: Mouse (C3H/10T1/2) cells, Assay Type: Cell transformation, Assay Code: CTH+, Evaluation Type: Evaluation A (Pre-1980)
  mutagenic call: active; positive
Species/Cell Type: Mouse germ cells, Sex: Male, Assay Type: Unscheduled DNA synthesis (UDS) in vivo, DNA effects, Assay Code: UDT+, Evaluation Type: Evaluation A (Pre-1980)
  mutagenic call: active; positive
Species/Cell Type: Mouse lymphoma (L5178Y) cells, Assay Type: Forward gene mutation at the thymidine kinase (TK) locus, chromosome aberrations, Assay Code: L51+, Evaluation Type: Evaluation A (Pre-1980)
  mutagenic call: active; positive
Species/Cell Type: Mouse, Sex: Female, Assay Type: Spot test, gene mutation, Assay Code: MSTT, Evaluation Type: Evaluation A (Pre-1980)
  mutagenic call: no conclusion
Species/Cell Type: Mouse, Sex: Male, Assay Type: Specific locus test, gene mutation, Assay Code: SLT-, Evaluation Type: Evaluation A (Pre-1980)
  mutagenic call: inactive; negative
Species/Cell Type: Mouse, Sex: Male, Assay Type: Sperm morphology, Assay Code: SPI+, Evaluation Type: Evaluation A (Pre-1980)
  mutagenic call: active; positive
Species/Cell Type: Neurospora crassa, Assay Type: Aneuploidy, chromosome aberrations, Assay Code: NEN-, Evaluation Type: Evaluation A (Pre-1980)
  mutagenic call: inactive; negative
Species/Cell Type: Neurospora crassa, Assay Type: Forward gene mutation, Assay Code: NEF+, Evaluation Type: Evaluation A (Pre-1980)
  mutagenic call: active; positive
Species/Cell Type: Nonhuman bone marrow, Assay Type: Chromosome aberrations, in vivo, Assay Code: CY#T, Evaluation Type: Evaluation A (Pre-1980)
  mutagenic call: no conclusion
Species/Cell Type: Nonhuman, Assay Type: Chromosome aberrations in vitro, Assay Code: CY&T, Evaluation Type: Evaluation A (Pre-1980)
  mutagenic call: no conclusion
Species/Cell Type: Nonhuman, Assay Type: In vivo carcinogenicity studies, Assay Code: CCG-L, Evaluation Type: Evaluation A (Pre-1980)
  call: inactive; negative
Species/Cell Type: Nonhuman, Assay Type: Sister-chromatid exchange (SCE) in vitro, Assay Code: SC2+D, Dose Response: With dose response, Evaluation Type: Evaluation A (Pre-1980)
  mutagenic call: active; positive
Species/Cell Type: Nonhuman, Assay Type: Sister-chromatid exchange (SCE) in vivo, Assay Code: SC3+D, Dose Response: With dose response, Evaluation Type: Evaluation B (Post-1980)
  mutagenic call: active; positive
Species/Cell Type: Rodents, Sex: Male, Assay Type: Dominant lethal test, Assay Code: DLT+, Evaluation Type: Evaluation A (Pre-1980)
  mutagenic call: active; positive
Species/Cell Type: Rodents, Sex: Male, Assay Type: Dominant lethal test, Assay Code: DLT-, Evaluation Type: Evaluation A (Pre-1980)
  mutagenic call: inactive; negative
Species/Cell Type: Saccharomyces cerevisiae, Assay Type: Mitotic recombination or gene conversion, Assay Code: YEC+, Evaluation Type: Evaluation A (Pre-1980)
  mutagenic call: active; positive
Species/Cell Type: Saccharomyces cerevisiae, Assay Type: Mitotic recombination or gene conversion, Assay Code: YEH+, Evaluation Type: Evaluation A (Pre-1980)
  mutagenic call: active; positive
Species/Cell Type: Saccharomyces cerevisiae, Assay Type: Reverse gene mutation, Assay Code: YER+, Evaluation Type: Evaluation A (Pre-1980)
  mutagenic call: active; positive
Species/Cell Type: Salmonella typhimurium (one or more of the five standard strains: TA98, TA100, TA1535, TA1537, and TA1538), Assay Type: Histidine reverse gene mutation, Ames assay, Assay Code: SAL+, Evaluation Type: Evaluation A (Pre-1980)
  mutagenic call: active; positive
Species/Cell Type: Salmonella typhimurium, Assay Type: Forward and reverse gene mutation, body fluid assay, Assay Code: BFU+, Evaluation Type: Evaluation A (Pre-1980)
  mutagenic call: active; positive
Species/Cell Type: Salmonella typhimurium, Assay Type: Forward and reverse gene mutation, host-mediated assay, Assay Code: HMA+, Evaluation Type: Evaluation A (Pre-1980)
  mutagenic call: active; positive
Species/Cell Type: Schizosaccharomyces pombe, Assay Type: Forward gene mutation, Assay Code: YEY+, Evaluation Type: Evaluation A (Pre-1980)
  mutagenic call: active; positive
Species/Cell Type: Syrian hamster embryo (SHE) cells, Assay Type: Cell transformation, clonal assay, Assay Code: CTC+, Evaluation Type: Evaluation A (Pre-1980)
  mutagenic call: active; positive

## CC(=O)[O-].CC(=O)[O-].CC(=O)[O-].[Sb+3]
Species/Cell Type: Syrian hamster embryo (SA7/SHE) cells, Assay Type: Cell transformation, viral enhanced, Assay Code: CT7+, Evaluation Type: Evaluation A (Pre-1980)
  mutagenic call: active; positive

## Nc1nc(N)c2cc(S(=O)(=O)c3ccc4ccccc4c3)ccc2n1
Species/Cell Type: Salmonella typhimurium (one or more of the five standard strains: TA98, TA100, TA1535, TA1537, and TA1538), Assay Type: Histidine reverse gene mutation, Ames assay, Assay Code: SALT, Evaluation Type: Evaluation A (Pre-1980)
  mutagenic call: no conclusion

## CCC(C)Br (configuration not stated)
Species/Cell Type: Escherichia coli polA (W3119 vs P3478), Assay Type: Rec-assay, DNA effects (bacterial DNA repair), Assay Code: RE1T, Evaluation Type: Evaluation A (Pre-1980)
  mutagenic call: no conclusion
